Results: the Biogen ADME set (Fang et al. 2023)
Values after ≈ are worked out from the molar mass of the structure shown.

Settings: for aqueous solubility: pH 6.8

| Compound | intrinsic clearance, human liver microsomes | intrinsic clearance, rat liver microsomes | aqueous solubility | MDR1-MDCK efflux ratio | fraction unbound, human plasma | fraction unbound, rat plasma |
| --- | --- | --- | --- | --- | --- | --- |
| O=C(COc1ccc2ccc(=O)oc2c1)Nc1cccc(COCc2ccco2)c1 | 77.5 mL/min/kg | 425 mL/min/kg | 21.4 µg/mL (≈ 52.7 µM) |  |  |  |
| Cc1ncsc1C(=O)N1CCCCC1c1nc(N(C)C)ncc1-c1cccc(Cl)c1 (stereo unspecified) | 236 mL/min/kg | 1200 mL/min/kg | 18.2 µg/mL (≈ 41.2 µM) | 1.28 | 0.00826 | 0.0105 |
| CC(C)(O)CCn1cc2cc(NC(=O)c3ccn(C(F)F)n3)c(OCC3COC3)cc2n1 | ≤ 4.74 mL/min/kg | 13.3 mL/min/kg |  | 11.8 |  |  |
| CC(C)(C)c1cc(NC(=O)Nc2ccc(-c3cn4c(n3)sc3cc(OCCN5CCOCC5)ccc34)cc2)no1 |  |  | 0.3 µg/mL (≈ 0.535 µM) |  |  |  |
| Cc1ccc(C)c(OCC(=O)N2CCC(C(=O)Nc3ccccc3)CC2)c1 | 302 mL/min/kg | 1390 mL/min/kg | 3.37 µg/mL (≈ 9.2 µM) | 2.86 |  |  |
| CN1CCN(CCOc2ccccc2N)CC1 | 8.03 mL/min/kg | 130 mL/min/kg | 38.1 µg/mL (≈ 162 µM) | 0.548 |  |  |
| CNC(=O)CCc1nc(-c2ccccn2)no1 | ≤ 4.74 mL/min/kg | ≤ 10.7 mL/min/kg | 50.5 µg/mL (≈ 217 µM) | 1.05 |  |  |
| Cc1cc(N(C)CC(C)(C)O)ncc1Br | 36.1 mL/min/kg | 970 mL/min/kg |  |  |  |  |
| Cc1cccc(C)c1OCC(=O)N(C)C1(C#N)CCC1 | 13.3 mL/min/kg | 472 mL/min/kg | 56.1 µg/mL (≈ 206 µM) | 0.621 |  |  |
| Cc1cc2nc(CCC(=O)N3CCC(c4ccc(C(=O)N(C)C)c(N)n4)CC3)[nH]c2cc1C | 107 mL/min/kg | 320 mL/min/kg | 39.7 µg/mL (≈ 88.4 µM) | 36.2 |  |  |
| CC(C)(C)C(=O)Nc1nnc(Cc2ccccc2)s1 | ≤ 4.74 mL/min/kg | 658 mL/min/kg | 35.2 µg/mL (≈ 128 µM) | 1.19 |  |  |
| Cc1ccc(N/N=C2\C(=O)N(C)N=C2Nc2ccccc2Cl)cc1 |  |  | 0.5 µg/mL (≈ 1.46 µM) |  |  |  |
| Cc1cccc(NCC2CCN(C(=O)c3ccccc3)CC2)n1 | 13.2 mL/min/kg | 1110 mL/min/kg | 28.5 µg/mL (≈ 92.1 µM) | 1.18 |  |  |
| Cc1ccc(-c2nc(CN3CCOCC3)n(Cc3ccc(F)cc3)n2)o1 | 98.3 mL/min/kg | 1400 mL/min/kg | 28.9 µg/mL (≈ 81.2 µM) | 4.11 |  |  |
| Cc1noc(Cc2ccc(C)c(O)c2)n1 | 10.7 mL/min/kg | 52.2 mL/min/kg |  |  |  |  |
| Cc1ccc(-c2cnc(N)cn2)c2cccnc12 | 23.1 mL/min/kg | 75.4 mL/min/kg | 31.8 µg/mL (≈ 135 µM) | 0.671 |  |  |
| CCC(C)(C)c1ccc(Oc2ccc(NC(=O)Nc3ccccc3OC)cc2)cc1 |  |  | 0.43 µg/mL (≈ 1.06 µM) |  |  |  |
| CC(C)Cc1ccc(-c2nc(-c3ccc(CN4CC(C(=O)O)C4)cc3)no2)cc1 | 7.6 mL/min/kg | 17 mL/min/kg |  |  |  |  |
| COc1ccc(NC(=O)c2snnc2C)c(OC)c1 | 34.2 mL/min/kg | 182 mL/min/kg | 3.67 µg/mL (≈ 13.1 µM) | 0.521 |  |  |
| CCCCOc1ccc(-c2cc3c(=O)[nH]ccn3n2)cc1 |  |  | 0.2 µg/mL (≈ 0.706 µM) | 0.743 |  |  |

| Compound | intrinsic clearance, human liver microsomes | intrinsic clearance, rat liver microsomes | aqueous solubility | MDR1-MDCK efflux ratio | fraction unbound, human plasma | fraction unbound, rat plasma |
| --- | --- | --- | --- | --- | --- | --- |
| Cc1ccc(-n2nc(C(C)(C)C)cc2NC(=O)NCc2cc(F)ccc2Oc2ccc3c(cnn3CCO)c2)cc1 |  |  | 0.2 µg/mL (≈ 0.359 µM) | 16.2 |  |  |
| CCSCCC(=O)NCCn1nc(C)c(CC)c1C | 146 mL/min/kg | 1540 mL/min/kg |  | 2.49 |  |  |
| O=C(CCN1CCN(C(=O)OCc2cc(Cl)cc(Cl)c2)CC1)c1ccc2[nH]c(=O)oc2c1 | 147 mL/min/kg | 513 mL/min/kg | 4.4 µg/mL (≈ 9.2 µM) |  |  |  |
| CCN(CC)C(=O)CSCc1cncc(F)c1 | 31.2 mL/min/kg | 835 mL/min/kg |  | 0.711 |  |  |
| O=C(Nc1ccccc1)Nc1ccccc1 | 16 mL/min/kg | 91.4 mL/min/kg | 3.9 µg/mL (≈ 18.4 µM) |  |  |  |
| O=C(Nc1ccccc1)N1CCCc2cnc(N3CCOCC3)nc21 | ≤ 4.74 mL/min/kg | 116 mL/min/kg | 5.86 µg/mL (≈ 17.3 µM) | 1.22 |  |  |
| CC(C)(CO)NCCCCn1c2ccccc2c2ccccc21 | 54.2 mL/min/kg | 163 mL/min/kg | 31.8 µg/mL (≈ 102 µM) | 7.39 |  |  |
| OCC1CCCCN1Cc1ccc(Cl)c(Cl)c1 (stereo unspecified) | ≤ 4.74 mL/min/kg | 299 mL/min/kg | 42 µg/mL (≈ 153 µM) | 0.524 | 0.246 | 0.305 |
| Clc1ccc2c(NCCN3CCOCC3)ncnc2c1 | 11.7 mL/min/kg | 213 mL/min/kg |  | 1.37 |  |  |
| O=C(Cn1nc(Cc2ccccc2)c2ccccc2c1=O)NCCc1c[nH]cn1 | 36.6 mL/min/kg | 597 mL/min/kg |  | 34.6 |  |  |
| Brc1nnc(N2CCC(OC3CCCC3)CC2)s1 | 77.3 mL/min/kg | 3110 mL/min/kg |  | 0.582 |  |  |
| CC(=O)N1CCN(C(=O)CCc2ccc(-c3ccccc3)[nH]2)CC1 | ≤ 4.74 mL/min/kg | 59.6 mL/min/kg | 61.8 µg/mL (≈ 190 µM) | 8.83 |  |  |
| COc1cccc(Oc2ccc(NC(=O)CN3CCOCC3)cn2)c1 | ≤ 4.74 mL/min/kg | 138 mL/min/kg |  | 1.26 |  |  |
| N#Cc1ccc(CN2CC(n3cccn3)C2)cc1 | ≤ 4.74 mL/min/kg | 20.7 mL/min/kg | 36.5 µg/mL (≈ 153 µM) | 0.596 |  |  |
| Cc1cncc(CN2CCC(=C3c4ccc(Cl)cc4CCc4cccnc43)CC2)c1 | 511 mL/min/kg | 1010 mL/min/kg |  | 1.45 |  |  |
| Cc1ccc(F)c(-c2noc(N)c2C)c1 | 19.6 mL/min/kg | 293 mL/min/kg |  | 0.523 |  |  |
| Cc1nc(C)c(C(=O)Nc2ccc3ncccc3c2)o1 | 13.4 mL/min/kg | 34.8 mL/min/kg |  |  |  |  |
| COc1cccc(/C=C2/N=C(c3ccccc3)NC2=O)c1OC |  |  | 0.33 µg/mL (≈ 1.07 µM) |  |  |  |
| CN(C)C(=O)c1cncc(N(C)CCN(C)C2CCCC2)n1 | 6.5 mL/min/kg | 32.3 mL/min/kg |  | 20.2 |  |  |
| Cc1cccc(O[C@H]2CN(Cc3ccc(OCCCO)cc3)C[C@@H]2O)c1 | 71 mL/min/kg | 702 mL/min/kg | 62 µg/mL (≈ 173 µM) | 2.24 |  |  |

| Compound | intrinsic clearance, human liver microsomes | intrinsic clearance, rat liver microsomes | aqueous solubility | MDR1-MDCK efflux ratio | fraction unbound, human plasma | fraction unbound, rat plasma |
| --- | --- | --- | --- | --- | --- | --- |
| O=C(c1ccc2c(c1)CCCC2)N1CCOCC1c1ccn[nH]1 (stereo unspecified) |  |  |  | 4.04 |  |  |
| O=c1cc2c(n[nH]1)-c1cnc(N3CCCCC3)nc1CC2 | 4.86 mL/min/kg | 110 mL/min/kg |  | 0.565 |  |  |
| CCCc1cc(N2CCc3c(nc(C(C)C)n3C)C2)n2ncnc2n1 | 14.3 mL/min/kg | 183 mL/min/kg | 56.4 µg/mL (≈ 166 µM) | 15.2 |  |  |
| O=C(O)c1cccc(N2CCC(Oc3ccc(Cl)cc3)CC2)n1 | 4.88 mL/min/kg | ≤ 10.7 mL/min/kg | 45 µg/mL (≈ 135 µM) | 0.711 |  |  |
| Clc1snnc1CN1CCCN(c2nc3ccccc3[nH]2)CC1 | 105 mL/min/kg | 1440 mL/min/kg | 28.2 µg/mL (≈ 80.7 µM) | 13.1 |  |  |
| O=C(NC1CCCC1)C1=CCN(C(=O)C2CC2)C1 | ≤ 4.74 mL/min/kg | 37.3 mL/min/kg |  | 5.2 |  |  |
| C[C@H]1CN(Cc2c(Cl)cccc2C(F)(F)F)C[C@@]1(CC(=O)O)C(=O)NC1CCN(CC2=CCCCC2)CC1 |  |  |  | 80.8 |  |  |
| c1ccc2c(c1)CCN(Cc1nnc3n1CCC3)C2 | ≤ 4.74 mL/min/kg | 34.5 mL/min/kg | 35.3 µg/mL (≈ 139 µM) | 6.91 |  |  |
| CCCOc1c2c(nc3cc(C4CCOCC4)nn13)CCC2 | ≤ 4.74 mL/min/kg | 16.1 mL/min/kg |  | 22.3 |  |  |
| O=C(Nc1nc2ccccc2[nH]1)C1CC(=O)N(c2cccc(C(F)(F)F)c2)C1 (stereo unspecified) |  |  | 0.82 µg/mL (≈ 2.11 µM) |  |  |  |
| CCn1c(C(=O)N(C2CC2)C2CC2)cc2c3c(ncn3C)c(Nc3cc(C)n(C)n3)nc21 | 11.3 mL/min/kg | 20.1 mL/min/kg |  | 21 |  |  |
| O=C(C1CC1)N1CCCC(C(=O)N2CCc3ccccc3C2Cc2ccccc2)C1 (stereo unspecified) | 643 mL/min/kg | 4390 mL/min/kg | 45 µg/mL (≈ 112 µM) |  |  |  |
| CCCCCCNc1ncnc2[nH]ccc12 | 70.9 mL/min/kg | 574 mL/min/kg | 18.6 µg/mL (≈ 85.1 µM) | 0.498 |  |  |
| COc1ccc(F)c(CN2CCC(Cc3noc(C)n3)CC2)c1 | 20.2 mL/min/kg | 263 mL/min/kg | 69.4 µg/mL (≈ 217 µM) | 0.656 |  |  |
| CCCc1nnc(N2CCC3(CCCC3)C2)s1 | 86.7 mL/min/kg | 2160 mL/min/kg |  | 0.525 |  |  |
| Cc1nc(-c2cccc(C(N)=O)c2)sc1-c1ccc(F)cc1 | 18.1 mL/min/kg | 394 mL/min/kg |  |  |  |  |
| COc1ccc(C(=O)N(C)Cc2nccn2C)c(F)c1 | ≤ 4.74 mL/min/kg | 53.8 mL/min/kg | 52.5 µg/mL (≈ 189 µM) | 2.22 |  |  |
| CC(C)(C)c1ccc(C(O)CN2CCC(O)(c3ccc4c(c3)OCO4)CC2)cc1 (stereo unspecified) | 45.8 mL/min/kg |  |  | 0.698 | 0.0601 |  |
| COc1cccc(CC(=O)Nc2ccc3nc(C)sc3c2)c1 | 33.7 mL/min/kg | 342 mL/min/kg | 52.3 µg/mL (≈ 168 µM) | 0.818 |  |  |
| CN(C)C(=O)Cc1nc(-c2cc3cc(Cl)ccc3o2)cs1 |  |  | 2.41 µg/mL (≈ 7.51 µM) |  |  |  |
